# Data published in the supplement of paper PMC10307832.
# Legend:
# Test in all cases: relative viability (nuclei count vs DMSO), 5 days (fraction); higher = more cells survive
# [1] = compound: CN[C@@H]1C[C@H]2O[C@@](C)([C@@H]1OC)n1c3ccccc3c3c4c(c5c6ccccc6n2c5c31)C(=O)NC4 [Staurosporine] + CC(=O)c1c(C)c2cnc(Nc3ccc(N4CCNCC4)cn3)nc2n(C2CCCC2)c1=O [Palbociclib] (partner 0.5 µM)
# In short: (§1)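 Relative viability equals treated-well nuclei counts divided by vehicle-well nuclei counts. Counts came from 4× images of lung cancer cell lines grown in 1536-well plates for 5 days after pin-tool dosing on the day after seeding. Dosing used one drug alone or a fixed anchor-drug dose plus five library-drug doses (not always all listed) in √10 steps, and values are medians of duplicate plates.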
# [2] = compound: O=c1[nH]cc(F)c(=O)[nH]1 [5-Fluorouracil] + CC(=O)c1c(C)c2cnc(Nc3ccc(N4CCNCC4)cn3)nc2n(C2CCCC2)c1=O [Palbociclib] (partner 0.5 µM)
# In short: as §1
# Sulindac + AZD7762 = compound: CC1=C(CC(=O)O)c2cc(F)ccc2/C1=C\c1ccc([S+](C)[O-])cc1 [Sulindac] + NC(=O)Nc1cc(-c2cccc(F)c2)sc1C(=O)N[C@H]1CCCNC1 [AZD7762] (partner 0.2 µM)
# In short: as §1
# Sulindac + Navitoclax = compound: CC1=C(CC(=O)O)c2cc(F)ccc2/C1=C\c1ccc([S+](C)[O-])cc1 [Sulindac] + CC1(C)CCC(c2ccc(Cl)cc2)=C(CN2CCN(c3ccc(C(=O)NS(=O)(=O)c4ccc(N[C@H](CCN5CCOCC5)CSc5ccccc5)c(S(=O)(=O)C(F)(F)F)c4)cc3)CC2)C1 [Navitoclax] (partner 0.5 µM)
# In short: as §1
Cell Line,relative viability ([1]; first compound 0.005 µM),relative viability ([1]; first compound 0.01581 µM),relative viability ([1]; first compound 0.1581 µM),relative viability ([1]; first compound 0.5 µM),relative viability ([2]; first compound 0.02 µM),relative viability ([2]; first compound 0.2 µM),relative viability ([2]; first compound 0.6325 µM),relative viability ([2]; first compound 2 µM),relative viability (Sulindac + AZD7762; first compound 0.08 µM),relative viability (Sulindac + AZD7762; first compound 0.253 µM),relative viability (Sulindac + AZD7762; first compound 0.8 µM),relative viability (Sulindac + AZD7762; first compound 2.53 µM),relative viability (Sulindac + AZD7762; first compound 8 µM),relative viability ([1]; first compound 0.05 µM),relative viability (Sulindac + Navitoclax; first compound 0.08 µM),relative viability (Sulindac + Navitoclax; first compound 0.253 µM),relative viability (Sulindac + Navitoclax; first compound 0.8 µM),relative viability (Sulindac + Navitoclax; first compound 2.53 µM),relative viability (Sulindac + Navitoclax; first compound 8 µM)
NCI-H522,1.19,0.877,0.638,0.502,1,1.05,0.96,0.992,0.753,0.921,0.962,0.693,0.657,,,,,,
NCI-H1944,0.319,0.242,0.203,0.204,0.306,0.319,0.252,0.214,0.519,0.382,0.526,0.512,0.551,0.223,0.958,1,1,1.07,1.23
PC-14,0.174,0.077,0.0411,0.0434,0.585,0.504,0.435,0.311,0.377,0.315,0.35,0.284,0.364,0.0379,0.933,1.1,,1.07,1.14
NCI-H1650,0.238,0.138,0.118,0.0769,0.275,0.379,0.31,0.236,,,,,,0.147,1.23,1.12,1.16,1.04,1.38
HCC-827,0.59,0.401,0.226,0.225,0.46,0.455,0.231,0.255,0.218,0.222,0.198,0.204,0.244,0.299,1.04,1.02,0.997,0.973,1.08
HCC-366,0.297,,0.0357,0.0204,0.404,0.332,0.154,0.0646,0.284,0.257,,0.359,0.265,0.113,1.32,1.19,0.817,0.957,1.18
HARA,0.268,0.236,0.177,0.118,0.305,0.261,0.267,0.286,0.339,0.392,0.288,0.294,0.307,0.206,1.21,1.24,,1.18,1.14
NCI-H441,0.161,0.12,0.114,0.112,0.238,0.264,0.178,0.249,1.24,1.03,0.798,1.18,1.38,0.118,0.395,0.588,0.519,0.478,0.822
LXF-289,0.717,0.21,0.141,0.117,0.596,0.578,0.312,0.283,1.15,1.15,0.987,1.21,1.24,0.16,1,0.97,0.953,0.999,0.965
SK-LU-1,0.326,0.186,0.164,0.161,0.398,0.388,0.382,0.373,,,,,,0.166,0.96,0.875,0.694,0.84,1.54
CAL-12T,0.196,0.138,0.142,0.122,0.515,0.419,0.359,0.251,0.586,0.717,0.497,0.622,0.708,0.107,1.67,1.35,0.969,1.38,1.42
COR-L 105,0.365,0.334,0.282,0.246,0.4,0.438,0.44,0.427,,,,,,0.313,0.591,0.987,0.901,0.722,0.962
NCI-H2405,0.196,0.172,,0.0886,0.541,0.579,0.529,0.48,0.86,0.811,0.642,0.691,0.995,0.122,0.934,0.9,0.783,0.859,1.11
NCI-H2228,0.209,0.215,0.102,0.0805,0.79,0.733,0.509,0.356,,,,,,0.3,0.937,0.967,0.839,1.46,1.01
PC-3 [JPC-3],0.563,0.513,0.398,0.343,0.562,0.582,0.576,0.509,0.855,0.805,0.697,0.715,1.06,0.398,0.971,0.758,0.786,0.762,0.752
SW 1573,0.172,0.113,0.0619,0.081,0.398,0.353,0.29,0.236,,,,,,0.131,,1.02,,1.09,1.2
A549,,,,,,,,,,,,,,,1.63,1.29,,1.21,1.46
NCI-H1648,0.23,0.227,0.279,0.258,0.297,0.267,0.281,0.241,0.682,0.746,,0.7,0.768,0.249,,,,,
NCI-H1666,0.63,0.555,0.482,0.462,0.677,0.642,0.647,0.609,0.869,0.878,0.776,0.847,0.945,0.679,,0.963,0.793,0.853,1.19
NCI-H2087,0.208,0.2,0.0793,0.0947,0.234,0.243,0.164,0.179,1.73,1.52,0.983,1.48,1.4,0.0957,0.958,0.939,0.88,0.973,1.1
